Patent US10195196B2, “1,4-disubstituted pyridazine analogs there of and methods for treating SMN-deficiency-related conditions” (NOVARTIS AG, priority 2012, dated 2019)

Test system: SMN protein
Test: cellular SMN ELISA (SMN protein elevation)
Assay type: cell-based
Conditions: myoblast cell line from SMNdelta7 mouse model, 24 hours treatment; for SMN activity Fold: fold activation over DMSO control
Method: A cellular SMN ELISA was used to measure the effects of low molecular weight compounds on SMN protein elevation. Cells from a myoblast cell line derived from the SMNdelta7 mouse model (kind gift from Steve Burden, NYU) were seeded into a 384-well plate at a density of 3000 cells/well and treated with compounds for 24 hours. ELISA capture plates were prepared by coating 384-well plates (Immulon 4HBX) with 0.5 ug/mL of anti-SMN mAb (BD Science, Catalog number 610647) at 4° C. overnight. The plates were washed 5 times with 110 uL of PBS-Tween (0.05% Tween-20, PBST), blocked with 100 uL of 1% BSA in PBST for 2 hours and washed (5 times) with 100 uL of PBST. After 24 hours of compound treatment cells were lysed in a modified RIPA-buffer, on ice for 1 hour. 20 uL of lysate and 20 uL of 1% BSA were then added to the ELISA capture plates and incubated at 4° C. overnight. Plates were washed (5 times) with PBST and then incubated with 1:100 dilution of primary rabbit anti-SMN polyclonal antibody (Santa cruz, Catalog number SC-15320) at room temperature for 1 hour and subsequently washed (5 times) with 110 uL of PBST. This was followed by addition of 1:100 Goat anti-Rabbit IgG-HRP linked (Cell Signaling, Catalog number 7074) secondary antibody for 1 hour. Plates were then washed with PBST and incubated with 40 uL TMB substrate (Cell Signaling, Catalog number 7004L) at room temperature for 1-10 minutes with shaking. The reaction was stopped by addition of 40 uL of stop solution (Cell signaling, Catalog number 7002L) and absorption was measured at 450 nm. Data was reported as fold activation over DMSO control, and EC50.
ELISA assay condition 1: compound concentration range 20 nM-10 uM; ELISA assay condition 2: compound concentration 100 pM-10 uM.

[1] = ELISA condition 2: compound concentration 100 pM-10 uM
[2] = ELISA condition 1: compound concentration range 20 nM-10 uM

Row | SMILES | EC50 [1] [nM] | SMN activity Fold [1] [Fold] | EC50 [2] [nM] | SMN activity Fold [2] [Fold]
1 | CN(c1ccc(-c2ccc(-c3ccn4ccnc4c3)cc2O)nn1)C1CC(C)(C)NC(C)(C)C1 [Example 41-19, 5-(imidazo[1,2-a]pyridin-7-yl)-2-(6-(methyl(2,2,6,6-tetramethylpiperidin-4-yl)amino)pyridazin-3-yl)phenol] | 17 | 2.62 |  | 
2 | CN(c1ccc(-c2ccc(-c3nc([N+](=O)[O-])c[nH]3)cc2O)nn1)C1CC(C)(C)NC(C)(C)C1 [Example 42-8, 2-(6-(methyl(2,2,6,6-tetramethylpiperidin-4-yl)amino)pyridazin-3-yl)-5-(4-nitro-1H-imidazol-2-yl)phenol] | 756 | 2.82 |  | 
3 | COc1cccc(-c2cc(O)c(-c3ccc(N(C)C4CC(C)(C)NC(C)(C)C4)nn3)c(OC)c2)c1 [Example 26-5, 3′,5-Dimethoxy-4-(6-(methyl(2,2,6,6-tetramethylpiperidin-4-yl)amino)pyridazin-3-yl)-[1,1′-biphenyl]-3-ol] | 313 | 2.14 |  | 
4 | CN1CC=C(c2ccc(-c3cc4ccc(O)cc4cc3O)nn2)CC1 [Example 19-6, 3-(6-(1-methyl-1,2,3,6-tetrahydropyridin-4-yl)pyridazin-3-yl)naphthalene-2,7-diol] | 40 | 2.33 |  | 
5 | OCC1CN(c2ccc(-c3ccc(-n4cccn4)cc3O)nn2)CCN1 (stereo not drawn) [Example 18-10, 2-[6-(3-hydroxy-methyl-piperazin-1-yl)-pyridazin-3-yl]-5-pyrazol-1-yl-phenol] | 386 | 2.55 |  | 
6 | C=CCc1c(O)ccc2cc(-c3ccc(N(C)C4CC(C)(C)NC(C)(C)C4)nn3)ccc12 [Example 6-1, 1-allyl-6-(6-(methyl(2,2,6,6-tetramethylpiperidin-4-yl)amino)pyridazin-3-yl)naphthalen-2-ol] | 630 | 2.04 |  | 
7 | CN(c1ccc(-c2ccc(-c3ccccc3)nc2)nn1)C1CC(C)(C)NC(C)(C)C1 [Example 1-17, methyl-[6-(6-phenyl-pyridin-3-yl)-pyridazin-3-yl]-(2,2,6,6-tetramethyl-piperidin-4-yl)-amine] | 926 | 2.37 |  | 
8 | CN(c1ccc(-c2cnc3ccccc3c2)nn1)C1CC(C)(C)NC(C)(C)C1 [Example 1-21, methyl-(6-quinolin-3-yl-pyridazin-3-yl)-(2,2,6,6-tetramethyl-piperidin-4-yl)-amine] |  |  | 630 | 2.49
9 | CN(c1ccc(-c2ccc(-c3ccc(O)nc3)cc2O)nn1)C1CC(C)(C)NC(C)(C)C1 [Example 41-2] | 50 | 2.68 |  | 
10 | CN(c1ccc(-c2cc3ccc(OCCCNC(=O)OC(C)(C)C)cc3cc2O)nn1)C1CC(C)(C)NC(C)(C)C1 [Example 20-4, [3-(7-hydroxy-6-{6-[methyl-(2,2,6,6-tetramethyl-piperidin-4-yl)-amino]-pyridazin-3-yl}-naphthalen-2-yloxy)-propyl]-carbamic acid tert-butyl ester] |  |  | 310 | 2.32
11 | COc1cncc(-c2ccc(-c3ccc(N(C)C4CC(C)(C)NC(C)(C)C4)nn3)c(O)c2)c1 [Example 41-1, 5-(5-methoxypyridin-3-yl)-2-(6-(methyl(2,2,6,6-tetramethylpiperidin-4-yl)amino)pyridazin-3-yl)phenol] | 125 | 2.78 |  | 
12 | Cc1cnc(-c2cc(O)c(-c3ccc(N(C)C4CC(C)(C)NC(C)(C)C4)nn3)c(OCc3ccccc3)c2)o1 [Example 27-1, 3-(benzyloxy)-2-(6-(methyl(2,2,6,6-tetramethylpiperidin-4-yl)amino)pyridazin-3-yl)-5-(5-methyloxazol-2-yl)phenol] | 305 | 2.35 |  | 
13 | CC1(C)CC(Oc2ccc(-c3ccc(-c4ccnc(O)c4)cc3O)nn2)CC(C)(C)N1 [Example 41-9, 4-(3-hydroxy-4-(6-((2,2,6,6-tetramethylpiperidin-4-yl)oxy)pyridazin-3-yl)phenyl)pyridin-2-ol] | 72 | 4.2 |  | 
14 | CC1(C)CC(Oc2ccc(-c3ccc4ccncc4c3)nn2)CC(C)(C)N1 [Example 1-10, 7-(6-((2,2,6,6-tetramethylpiperidin-4-yl)oxy)pyridazin-3-yl)isoquinoline] | 1100 | 2.75 |  | 
15 | CN(c1ccc(-c2cc3ccc(OCCCN)cc3cc2O)nn1)C1CC(C)(C)NC(C)(C)C1 [Example 20-5, 7-(3-amino-propoxy)-3-{6-[methyl-(2,2,6,6-tetramethyl-piperidin-4-yl)-amino]-pyridazin-3-yl}-naphthalen-2-ol] | 6 | 2.66 |  | 
16 | Oc1cc(-n2cccn2)ccc1-c1ccc(N2CCC3(CCCN3)C2)nn1 (stereo not drawn) [Example 18-11, 2-[6-(1,7-diaza-spiro[4.4]non-7-yl)-pyridazin-3-yl]-5-pyrazol-1-yl-phenol] | 320 | 2.53 |  | 
17 | Oc1cc(-n2cccn2)ccc1-c1ccc(C2=CCNCC2)nn1 [Example 19-1, 5-pyrazol-1-yl-2-[6-(1,2,3,6-tetrahydro-pyridin-4-yl)-pyridazin-3-yl]-phenol] | 477 | 2.77 |  | 
18 | CN(c1ccc(-c2ccc(C3=CCCC3)cc2O)nn1)C1CC(C)(C)NC(C)(C)C1 [Example 41-16, 5-(cyclopent-1-en-1-yl)-2-(6-(methyl(2,2,6,6-tetramethylpiperidin-4-yl)amino)pyridazin-3-yl)phenol] | 62 | 2.30 |  | 
19 | COc1ccc(-c2ccc(N(C)C3CC(C)(C)NC(C)(C)C3)nn2)c(O)c1 [Example 3-11, 5-methoxy-2-{6-[methyl-(2,2,6,6-tetramethyl-piperidin-4-yl)-amino]-pyridazin-3-yl}-phenol] | 220 | 2.47 |  | 
20 | CN(c1ccc(-c2ccc(-c3ccn4cncc4c3)cc2O)nn1)C1CC(C)(C)NC(C)(C)C1 [Example 41-18, 5-(imidazo[1,5-a]pyridin-7-yl)-2-(6-(methyl(2,2,6,6-tetramethylpiperidin-4-yl)amino)pyridazin-3-yl)phenol] | 17 | 2.44 |  | 
21 | CN(c1ccc(-c2cc(-c3ccn[nH]3)c(F)cc2O)nn1)C1CC(C)(C)NC(C)(C)C1 [Example 34-5, 5-fluoro-2-(6-(methyl(2,2,6,6-tetramethylpiperidin-4-yl)amino)pyridazin-3-yl)-4-(1H-pyrazol-5-yl)phenol] | 56 | 2.75 |  | 
22 | CC1(C)CC(Oc2ccc(-c3cc(-c4ccnc(O)c4)ccc3O)nn2)CC(C)(C)N1 [Example 32-9, 4-(4-hydroxy-3-(6-((2,2,6,6-tetramethylpiperidin-4-yl)oxy)pyridazin-3-yl)phenyl)pyridin-2-ol] | 485 | 2.90 |  | 
23 | CN(c1ccc(-c2cc(-c3cn[nH]c3)c(F)cc2O)nn1)C1CC(C)(C)NC(C)(C)C1 [Example 34-4, 5-fluoro-2-(6-(methyl(2,2,6,6-tetramethylpiperidin-4-yl)amino)pyridazin-3-yl)-4-(1H-pyrazol-4-yl)phenol] | 37 | 2.34 |  | 
24 | CN(c1ccc(-c2cc(-n3cc(CO)cn3)ccc2O)nn1)C1CC(C)(C)NC(C)(C)C1 [Example 37-1, 4-(4-(hydroxymethyl)-1H-pyrazol-1-yl)-2-(6-(methyl(2,2,6,6-tetramethylpiperidin-4-yl)amino)pyridazin-3-yl)phenol] | 118 | 2.59 |  | 
25 | CN(c1ccc(-c2ccc(-c3cncc(O)c3)cc2O)nn1)C1CC(C)(C)NC(C)(C)C1 [Example 41-13, 5-(3-hydroxy-4-(6-(methyl(2,2,6,6-tetramethylpiperidin-4-yl)amino)pyridazin-3-yl)phenyl)pyridin-3-ol] | 308 | 3.50 |  | 
26 | CN(c1ccc(-c2cc(F)c(F)cc2O)nn1)C1CC(C)(C)NC(C)(C)C1 [Example 3-12, 4,5-difluoro-2-{6-[methyl-(2,2,6,6-tetramethyl-piperidin-4-yl)-amino]-pyridazin-3-yl}-phenol] |  |  | 129 | 2.70
27 | CC1(C)CC(N(CCO)c2ccc(-c3ccc(-n4cccn4)cc3O)nn2)CC(C)(C)N1 [Example 16-5, 2-{6-[(2-hydroxy-ethyl)-(2,2,6,6-tetramethyl-piperidin-4-yl)-amino]-pyridazin-3-yl}-5-pyrazol-1-yl-phenol] | 24 | 2.41 |  | 
